The record followed here is EPA's ToxValDB 9.5 (doi:10.2903/j.efsa.2013.3461).

Structures are written as SMILES. Converted amounts (≈) assume the structure as drawn.

One series has as its system Rattus norvegicus. Conditions: for LD50: acute, oral, mortality.
A further series concerns Anas platyrhynchos. Conditions: short-term; oral; feed; mortality.
Another series deals with Apis mellifera. Conditions: acute, duration: 48 hours, mortality.
Another series deals with Canidae. Conditions: oral, Dog Other, hematological.
The next series deals with Daphnia magna. Conditions: chronic/long-term; duration: 21 days; reproduction.
A further series has as its system Bibionidae. Conditions: chronic/long-term; duration: 28 days; development.

In the series with Rattus norvegicus, `Cc1cc(C)cc(C(=O)N(NC(=O)c2ccc3c(c2C)C(O)CCO3)C(C)(C)C)c1` (configuration not stated) [Chromafenozide metabolite (M 010)] showed an LD50 greater than 2000 mg/kg.

Turning to `Cc1cc(C)cc(C(=O)N(NC(=O)c2ccc3c(c2C)CCCO3)C(C)(C)C)c1` [Chromafenozide], the LC50 is 4.5 µg/mL (≈ 11.4 µM) in the series on Oncorhynchus mykiss (acute, duration: 96 hours, mortality); greater than 2160 mg/kg-day in the series with Anas platyrhynchos; greater than 1840 mg/kg-day in the series with Colinus virginianus (acute, oral, diet, mortality); greater than 1000 mg/kg with Tagia sp. (acute, duration: 14 days, mortality). For the same compound, the NOEC with Oncorhynchus mykiss (chronic/long-term, duration: 28 days, growth) is 0.96 mg/L; in the series with Colinus virginianus (reproduction developmental, reproduction), 79 mg/kg-day; in the series on Tagia sp. (chronic/long-term, duration: 8 weeks, reproduction) it was 49 mg/kg; with Daphnia magna, 0.84 mg/L; with Bibionidae, 0.047 mg/kg. Besides, the LD50 was greater than 100 µg/piece with Apis mellifera (dermal); greater than 133 µg/piece in the series with Apis mellifera (oral, unspecified); greater than 5000 mg/kg with Rattus norvegicus; greater than 2000 mg/kg in the series on Colinus virginianus (acute, oral, mortality). In the series on Rattus norvegicus (reproduction developmental, histopathology: nonneoplastic), this compound returned an NOEL of 128 mg/kg-day. For the same compound, the NOAEL in the series on Canidae (chronic, duration: 52 weeks) was found to be 27 mg/kg-day; in the series with Canidae (subchronic, duration: 90 days) it was 52 mg/kg-day.
